This is an account of results in US7625948B2, “Ester compound and medicinal use thereof” (Japan Tobacco Inc., priority 2002, dated 2009).

Experiment [1] has as its target T1, Microsomal triglyceride transfer protein (MTP) from bovine liver (Bos taurus, UniProt P55156).
T1 construct: from tissue; host or cells: bovine liver
T1 sequence (P55156 12-887): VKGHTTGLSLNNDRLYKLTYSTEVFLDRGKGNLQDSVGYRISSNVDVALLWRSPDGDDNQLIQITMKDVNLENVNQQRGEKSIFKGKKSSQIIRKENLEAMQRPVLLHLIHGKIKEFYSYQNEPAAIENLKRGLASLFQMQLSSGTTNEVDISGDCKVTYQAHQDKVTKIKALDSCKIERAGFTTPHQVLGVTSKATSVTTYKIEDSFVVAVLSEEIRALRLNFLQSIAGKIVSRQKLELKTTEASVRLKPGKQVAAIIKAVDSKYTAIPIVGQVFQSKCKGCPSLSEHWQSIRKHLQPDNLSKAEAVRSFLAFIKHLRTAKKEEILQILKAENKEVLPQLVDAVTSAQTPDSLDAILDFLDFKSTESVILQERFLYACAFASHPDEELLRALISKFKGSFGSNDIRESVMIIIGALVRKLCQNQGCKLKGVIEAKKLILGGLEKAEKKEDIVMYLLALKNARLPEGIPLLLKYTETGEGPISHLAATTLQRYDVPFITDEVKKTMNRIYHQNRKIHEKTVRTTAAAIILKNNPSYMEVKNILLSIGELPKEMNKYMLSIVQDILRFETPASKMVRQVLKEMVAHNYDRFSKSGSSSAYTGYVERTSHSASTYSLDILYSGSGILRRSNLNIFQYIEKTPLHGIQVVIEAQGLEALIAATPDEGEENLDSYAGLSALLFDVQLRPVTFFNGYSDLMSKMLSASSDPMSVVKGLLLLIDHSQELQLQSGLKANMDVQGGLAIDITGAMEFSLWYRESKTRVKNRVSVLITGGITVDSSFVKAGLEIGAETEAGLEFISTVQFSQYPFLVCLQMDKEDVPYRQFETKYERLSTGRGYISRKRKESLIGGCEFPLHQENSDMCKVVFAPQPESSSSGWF
T1 sequence (P05307 21-510 partner): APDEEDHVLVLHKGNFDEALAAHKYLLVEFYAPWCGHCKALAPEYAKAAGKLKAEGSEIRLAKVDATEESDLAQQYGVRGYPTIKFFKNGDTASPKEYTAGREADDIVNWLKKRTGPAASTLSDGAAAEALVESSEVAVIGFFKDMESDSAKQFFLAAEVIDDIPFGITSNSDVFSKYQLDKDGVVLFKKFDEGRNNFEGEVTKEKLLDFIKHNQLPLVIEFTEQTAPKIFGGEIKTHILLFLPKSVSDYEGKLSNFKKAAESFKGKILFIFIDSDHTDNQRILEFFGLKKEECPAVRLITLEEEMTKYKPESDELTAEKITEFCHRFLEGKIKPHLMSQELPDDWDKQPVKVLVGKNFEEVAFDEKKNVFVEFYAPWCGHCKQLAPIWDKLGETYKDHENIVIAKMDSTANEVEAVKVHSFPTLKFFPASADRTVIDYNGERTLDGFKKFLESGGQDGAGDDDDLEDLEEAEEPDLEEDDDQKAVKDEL
The experiment can be described thus: Test Example 1: inhibition of interliposomal triglyceride (TG) transfer activity by MTP (also used for metabolites in Test Example 8). The experiment is classed as biochemical. The protocol: Inhibition of Interliposomal Triglyceride (TG) Transfer Activity by MTP
Microsomal triglyceride transfer protein (MTP) from bovine liver was partially purified in such a way described below. A buffer (50 mM Tris, 250 mM sucrose, 1 mM EDTA, 0.02% NaN3 (pH 7.4)) for making a homogenate preparation was added to bovine liver, and the mixture was homogenated under ice-cooling, then centrifuged at 10,000×g (4° C., 30 minutes). The supernatant was adjusted to pH 5.1 with hydrochloric acid, and stirred for 30 minutes. The solution was further centrifuged at 10,000×g (4° C., 30 minutes), and 1 mM Tris buffer was added to the precipitated residue, and the mixture was adjusted to pH 8.6 with sodium hydroxide. After addition of 2.7M ammonium sulfate solution, the mixture was stirred for 30 minutes, then centrifuged at 10,000×g (4° C., 40 minutes). The resulting supernatant was served as a crude extraction fraction of MTP and stored at −80° C. under freezing. In its practical use, the crude extraction fraction of MTP was purified by column chromatography on diethylaminoethyl (DEAE) Sepharose using FPLC (Fast Performance Liquid Chromatography) system, and the purified MTP was used for the test.
Small unilamellar-vesicle (SUV) liposome (donor, 0.25 mol % triolein, 5 mol % cardiolipin) labeled with ^14C-triolein and non-labeled SUV liposome (acceptor, 0.25 mol % triolein) were prepared. A fixed amount of donor and acceptor, and MTP were mixed with a sample dissolved in DMSO or with DMSO. The mixture was incubated in a 15 mM Tris hydrochloride buffer (pH 7.4) containing 40 mM sodium chloride, 1 mM EDTA (ethylenediaminetetraacetic acid), 0.02% NaN3 and 0.5% bovine serum albumin at 37° C. for one hour. After completion of the incubation, a suspension of DEAE cellulose (50% v/v) in 15 mM Tris hydrochloride buffer (pH 7.4) was added to the above solution, and the mixture was centrifuged to separate the donor and the acceptor. The radioactivity in the acceptor was measured by liquid scintillation counter. The value obtained by subtracting the radioactivity in the blank from the amount of radioactivity in the acceptor of a DMSO group was determined as MTP-mediated TG transfer activity, and it was compared with the value obtained by subtracting the radioactivity in the blank from the radioactivity in a sample group. The blank was prepared by adding 15 mM Tris-HCl buffer (pH 7.4) in place of MTP. Inhibition rate (%) was calculated from the values obtained according to the following equation.
Inhibition rate (%)=100×(1 minus ((radioactivity of sample group minus radioactivity of blank group)/(radioactivity of DMSO group minus radioactivity of blank group))).
50% Inhibition rate (IC50) was determined on the basis of the above equation.
Inhibitory Activity on MTP and apo B Secretion Inhibition by Metabolites
In a similar manner to Test Examples 1 and 2, the activity of metabolites was assayed.

Another experiment has as its system HepG2 cells. Nature of the experiment: Test Example 2: inhibition of apolipoprotein B secretion from HepG2 cells, ELISA (also used for metabolites in Test Example 8). Conditions: Homo sapiens. The experiment is classed as cell-based. Put shortly:
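HepG2 cells cultured 24 h, then exposed 24 h to compounds or metabolites in medium with 0.5% DMSO. Secreted apo B in supernatant quantified by sandwich ELISA (HRP, ABTS, 405 nm) against purified human apo B standard; % inhibition vs DMSO group, IC50 derived.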

The mark [2] stands for this setting: main metabolites of the compounds (Test Example 8), read-out: MTP inhibition IC50.
The mark [3] stands for this setting: main metabolites of the compounds (Test Example 8), read-out: Inhibition of apo B secretion IC50.
[4] abbreviates: MTP-mediated 14C-triolein transfer between liposomes, 37° C., one hour, read-out: Test Example 1 MTP inhibition IC50.
Setting [5] is: 24 hours, apo B in supernatant by ELISA, read-out: Test Example 2 Inhibition of apo B secretion IC50.

Each structure is given as a SMILES string. Where two headings read alike, the source gives them in different places. Bounds are passed on as bounds.

Usually IC50 stands for the point on the concentration scale where inhibition reaches its midpoint.

Consider `CCNC(=O)C(CO)(C(=O)NCC)c1ccccc1`, for which the IC50 in experiment [1] (setting [2]) was > 1000 nM; in the experiment on HepG2 cells (setting [3]), > 10000 nM.

Take `O=C(O)Cc1ccc(NC(=O)c2ccccc2-c2ccc(C(F)(F)F)cc2)cc1`: the IC50 is > 1000 nM in experiment [1] (setting [2]) and > 10000 nM in the experiment with HepG2 cells (setting [3]).

As to `CCCNC(=O)C(CO)(C(=O)NCCC)c1ccccc1`, the half-inhibitory concentration (IC50) was > 1000 nM in experiment [1] (setting [2]) and > 10000 nM with HepG2 cells (setting [3]).

Consider `CN(C)C(=O)c1cc(CC(=O)O)ccc1NC(=O)c1ccccc1-c1ccc(C(F)(F)F)cc1`, for which the IC50 (in experiment [1] (setting [2]); in the experiment on HepG2 cells (setting [3])) was > 10000 nM in each case.

Take `CCOC(=O)C(CO)(C(=O)OCC)c1ccccc1`: the concentration for half-maximal inhibition (IC50) in experiment [1] (setting [2]) is > 1000 nM; in the experiment on HepG2 cells (setting [3]), > 10000 nM.

Turning to `COc1cc(CC(=O)O)ccc1NC(=O)c1ccccc1-c1ccc(C(F)(F)F)cc1`, the IC50 in experiment [1] (setting [2]) is > 1000 nM; in the experiment on HepG2 cells (setting [3]), > 10000 nM.

In the case of `CCOC(=O)C(COC(=O)Cc1ccc(N(C)C(=O)c2ccccc2-c2ccc(C(F)(F)F)cc2)cc1)(C(=O)OCC)c1ccccc1` [Example 1-4, 2-(2-{4-[Methyl-(4′-trifluoromethylbiphenyl-2-carbonyl)amino]phenyl}acetoxymethyl)-2-phenylmalonic acid diethyl ester], the IC50 in experiment [1] (setting [4]) turned out to be 3.4 nM; in the experiment on HepG2 cells (setting [5]) it was 190 nM.

On to `CC(C(=O)OCC1(C(=O)NCC(F)(F)F)c2ccccc2-c2ccccc21)c1ccc(NC(=O)c2ccccc2-c2ccc(C(F)(F)F)cc2)cc1` (centres unmarked) [Example 1-7], for which the results for the IC50 (in experiment [1] (setting [4]); with HepG2 cells (setting [5])) were 7.55 nM and 330 nM, respectively.

On to `O=C(Cc1ccc(NC(=O)c2ccccc2-c2ccc(C(F)(F)F)cc2)cc1)OCC(C(=O)NCC(F)(F)F)c1ccccc1` (centres unmarked) [Example 1-8], for which the half-maximal inhibitory concentration (IC50) in experiment [1] (setting [4]) is 37.5 nM; with HepG2 cells (setting [5]) it was 720 nM.

Regarding `CCOC(=O)C(COC(=O)Cc1ccc(NC(=O)c2ccccc2-c2ccc(C(F)(F)F)cc2)cc1)(C(=O)OCC)c1ccccc1` [Example 1-9], the 50% inhibitory concentration (IC50) in experiment [1] (setting [4]) amounted to 5.95 nM; in the experiment with HepG2 cells (setting [5]) it was 3.2 nM.

For the compound `CC(C)OC(=O)C(COC(=O)Cc1ccc(NC(=O)c2ccccc2-c2ccc(C(F)(F)F)cc2)cc1)(C(=O)OC(C)C)c1ccccc1` [Example 1-11], the results for the IC50 (in experiment [1] (setting [4]); in the experiment with HepG2 cells (setting [5])) were 32 nM and 22 nM, respectively.

Turning to `CCOC(=O)C(COC(=O)Cc1ccc(NC(=O)c2ccccc2-c2ccc(C(F)(F)F)cc2)cc1)(C(=O)OCC)C1CCCC1` [Example 1-14], the 50% inhibitory concentration (IC50) was found to be 82 nM in experiment [1] (setting [4]) and 55 nM in the experiment on HepG2 cells (setting [5]).

Regarding `O=C(Cc1ccc(NC(=O)c2ccccc2-c2ccc(C(F)(F)F)cc2)cc1)OCC(C(=O)OC1CCCCC1)(C(=O)OC1CCCCC1)c1ccccc1` [Example 1-22], the IC50 in experiment [1] (setting [4]) came to 66.5 nM; in the experiment with HepG2 cells (setting [5]), 180 nM.

Regarding `O=C(Cc1ccc(NC(=O)c2ccccc2-c2ccc(C(F)(F)F)cc2)cc1)OCC(C(=O)NC1CCCCC1)(C(=O)NC1CCCCC1)c1ccccc1` [Example 1-23], the IC50 was 54 nM in experiment [1] (setting [4]) and 63 nM in the experiment with HepG2 cells (setting [5]).

Take `CC(C)NC(=O)C(COC(=O)Cc1ccc(NC(=O)c2ccccc2-c2ccc(C(F)(F)F)cc2)cc1)(C(=O)NC(C)C)c1ccccc1` [Example 1-25]: the results for the IC50 (in experiment [1] (setting [4]); in the experiment with HepG2 cells (setting [5])) were 5 nM and 8.4 nM, respectively.

In the case of `CCOC(=O)c1cc(CC(=O)OCC(C(=O)OCC)(C(=O)OCC)c2ccccc2)ccc1NC(=O)c1ccccc1-c1ccc(C(F)(F)F)cc1` [Example 9-4, 2-(2-{3-Ethoxycarbonyl-4-[(4′-trifluoromethylbiphenyl-2-carbonyl)amino]phenyl}acetoxymethyl)-2-phenylmalonic acid diethyl ester], in the experiment with HepG2 cells (setting [5]), the half-inhibitory concentration (IC50) came out at 9.9 nM.

Regarding `CCOC(=O)C(COC(=O)CCc1ccc(NC(=O)c2ccccc2-c2ccc(C(F)(F)F)cc2)c(C(=O)N(C)C)c1)(C(=O)OCC)c1ccccc1` [Example 9-5, 2-(3-{3-Dimethylcarbamoyl-4-[(4′-trifluoromethylbiphenyl-2-carbonyl)-amino]-phenyl}-propionyloxymethyl)-2-phenyl-malonic acid diethyl ester], the IC50 in the experiment on HepG2 cells (setting [5]) was 3.1 nM.

For `CCNC(=O)C(COC(=O)c1ccc(CNC(=O)c2ccccc2-c2ccc(C(F)(F)F)cc2)cc1)(C(=O)NCC)c1ccccc1` [Example 9-6], in the experiment on HepG2 cells (setting [5]), the 50% inhibitory concentration (IC50) turned out to be 59 nM.

Consider `CCNC(=O)C(COC(=O)Cc1ccc(NC(=O)c2ccccc2-c2ccc(C(F)(F)F)cc2)c(C(=O)OCc2ccccc2)c1)(C(=O)NCC)c1ccccc1` [Example 9-8], for which the half-maximal inhibitory concentration (IC50) with HepG2 cells (setting [5]) worked out at 6.9 nM.

With `CCOC(=O)C(COC(=O)Cc1ccc(NC(=O)c2ccccc2-c2ccc(C(F)(F)F)cc2)c(C(=O)OCc2ccccc2)c1)(C(=O)OCC)c1ccccc1` [Example 9-14], the 50% inhibitory concentration (IC50) in the experiment on HepG2 cells (setting [5]) was 41 nM.

For the compound `CCOC(=O)C(COC(=O)Cc1ccc2c(c1)C(=O)N2C(=O)c1ccccc1-c1ccc(C(F)(F)F)cc1)(C(=O)OCC)c1ccccc1` [Example 9-17], the IC50 in the experiment on HepG2 cells (setting [5]) came out at 23 nM.

Regarding `CCOC(=O)C(COC(=O)Cc1ccc(NC(=O)c2ccccc2-c2ccc(C(F)(F)F)cc2)c(NC(C)=O)c1)(C(=O)OCC)c1ccccc1` [Example 9-21], the IC50 with HepG2 cells (setting [5]) came to 20 nM.

As to `CCOC(=O)C(COC(=O)Cc1ccc(NC(=O)c2ccccc2-c2ccc(C(F)(F)F)cc2)c(NC(=O)OC)c1)(C(=O)OCC)c1ccccc1` [Example 9-22], in the experiment with HepG2 cells (setting [5]), the IC50 was 0.96 nM.

`CCOC(=O)C(COC(=O)Cc1ccc(NC(=O)c2ccccc2-c2ccc(C(F)(F)F)cc2)c(-c2nc(C)cs2)c1)(C(=O)OCC)c1ccccc1` [Example 9-23]: the IC50 in the experiment on HepG2 cells (setting [5]) was determined as 8.77 nM.

`CCOC(=O)C(COC(=O)Cc1ccc(NC(=O)c2ccccc2-c2ccc(C(F)(F)F)cc2)c(-c2ccccc2)c1)(C(=O)OCC)c1ccccc1` [Example 9-24]: the half-inhibitory concentration (IC50) in the experiment on HepG2 cells (setting [5]) is 7.86 nM.

For `CCOC(=O)C(COC(=O)Cc1ccc(NC(=O)c2ccccc2-c2ccc(C(F)(F)F)cc2)c(C(=O)N(C)OC)c1)(C(=O)OCC)c1ccccc1` [Example 9-27], in the experiment with HepG2 cells (setting [5]), the IC50 was 0.82 nM.
